# Experiments:
# Assay type in all cases: cell-based
# [1] = system: P. falciparum Dd2-B2; test: Blood-stage dose-response assay (72 hr), Dd2 / Dd2-B2 parent; conditions: Plasmodium falciparum, DD2, read-out: Dd2-B2 parent EC50 ± SD (nM)
# Procedure: (§1) The 3D7-A10 clone has been used in previous in vitro drug selection and sequencing efforts ([Cowell et al., 2018]). Dd2 parasites were obtained from T. Wellems (NIAID, NIH). Dd2-B2 is a genetically homogeneous line that was cloned from Dd2 by limiting dilution in the Fidock lab. Parasite strains were cultured in 3-5% human O+ hematocrit in RPMI 1640 (Life Technologies) supplemented with 28 mM NaHCO3, 25 mM HEPES, and hypoxanthine ([…]). Depending on the parasite line, the media either contained gentamycin (25 μg/mL), or no antibiotic and was additionally supplemented with 0.5% AlbuMAX II (Life Technologies) and/or O+ human serum (heat inactivated and pooled). Blood and serum products were obtained from Interstate Blood Bank. Cultures were maintained at 37°C in 1.1% O2, 4% CO2, and 95% N2. Parasite populations were synchronized by 5% sorbitol treatment ([Lambros and Vanderberg, 1979]).
# (§2) For in vitro–selected lines, drug susceptibility was measured by SYBR Green I–based assay ([Johnson et al., 2007]; [Smilkstein et al., 2004]). Ring-stage parasites were cultured for 72 hr at 1% hematocrit and 1% starting parasitemia in 384-well black clear-bottom plates containing test compounds plated in triplicate in 12-point serial dilutions. Lysis buffer (0.16% w/v saponin, 1.6% Triton X-100, 5 mM EDTA, and 20 mM Tris-HCl, pH 7.4) with SYBR Green I fluorescent dye (Invitrogen) was added, and fluorescence readings were taken (excitation at 494 nm, emission at 530 nm). Alternatively, Dd2-B2 ring-stage cultures at 0.3% parasitemia and 1% hematocrit were exposed for 72 hr to a range of ten drug concentrations that were 2-fold serially diluted in duplicates along with drug-free controls. Parasite survival was assessed by flow cytometry on an Accuri C6 (BD Biosciences) using SYBR Green and MitoTracker Deep Red FM (Life Technologies) as nucleic acid stain and vital dyes respectively. EC50 values were calculated using a nonlinear regression curve fit in Prism Software version 8 (GraphPad).
# [2] = system: P. falciparum Dd2:T648M (CRISPR edited PfAcAS); test: Blood-stage dose-response assay, CRISPR-edited Dd2:T648M line; conditions: Plasmodium falciparum, mean ± SD, n bioreplicates
# Procedure: as §2
# (§3) Mutant PfAcAS-A597V and PfAcAS-T648M parasites were generated using CRISPR/Cas9. The guide RNAs for PfAcAS-A597V (5′-[…]-3′; 5′-[…]-3′) and for PfAcAS-T648M (5′-[…]-3′) were designed using Benchling (https://benchling.com/) to targeting sites in PfAcAS that were 6-14 bp upstream of the A597 codon and 6 bp downstream of the T648 codon respectively. Complementary oligos encoding the gRNA sequences (5′- tatt[…]-3’ / 5’-aaac[…]-3’; 5’-tatt[…]-3’ / 5’-aaac[…]-3’ and 5’- tattg[…]-3’ / 5’-aaac[…]c-3’ ) were phosphorylated using T4 polynucleotide kinase and annealed (95°C for 5 min, then step down of 5°C/min to 25°C) prior to ligation into the BbsI-digested pDC2-coCas9-U6.2-hDHFR plasmid ([Lim et al., 2016]). The donor template for PfAcAS-A597V was synthesized (ThermoFisher) as a 700 bp Genestring fragment spanning position 1468 to 2168 of the PfAcAS gene, and the donor for PfAcAS-T648M synthesized as a 829 bp fragment spanning position 1468 to 2297 and inserted into the AatII/EcoRI sites of the pDC2-coCas9-gRNA-hDHFR plasmid by Gibson assembly. Ring-stage parasites (Dd2) at 5% parasitemia were transfected by electroporation (BioRad Gene Pulser II at 0.310 kV and 950 μF) with 50 μg of each plasmid (plasmid 1: pDC2-coCas9-AcAS-A597V-gRNA1-hDHFR, plasmid 2: pDC2-coCas9-gRNA2-hDHFR, or plasmid 3: pDC2-coCas9-AcAS-T648M-gRNA1-hDHFR), and parasites selected for 10 days with 2.5 nM WR99210 (Jacobus Pharmaceuticals), followed by removal of drug pressure. After confirmation of editing in the bulk culture, clones were isolated by serial limiting dilution and confirmed by Sanger sequencing after PCR amplification from genomic DNA using forward primer 5′-[…]-3′ and reverse primer 5′-[…]-3′ (for A597V) and 5′-[…]-3′ (for T648M).
# [3] = system: P. falciparum 3D7-A10; test: Blood-stage dose-response assay (SYBR Green I, 72 hr), 3D7 / 3D7-A10 parent; conditions: Plasmodium falciparum, mean ± SD, n bioreplicates, read-out: 3D7-A10 parent EC50 ± SD
# Procedure: as §1, §2
# [4] = system: P. falciparum Dd2:A597V (CRISPR edited PfAcAS); test: Blood-stage dose-response assay, CRISPR-edited Dd2:A597V line; conditions: Plasmodium falciparum, mean ± SD, n bioreplicates
# Procedure: as §2, §3
# [5] = system: histone acetylation in P. falciparum 3D7-A10; test: Histone acetylation Western blot, wild-type 3D7-A10; conditions: trophozoites, 3 h exposure
# Procedure: Synchronous trophozoite-stage (24-32hr post-invasion) cultures at 3–5% parasitemia and 2% hematocrit in complete medium were exposed to test compounds for 3 hr at 37°C. […] DMSO was tested at 0.1% as the vehicle-only control. Following drug exposure, parasites were isolated via saponin lysis ice-cold 0.1% saponin in phosphate-buffered saline (PBS). Isolated parasites were washed 3x in ice-cold PBS containing protease inhibitor cocktail (cOmplete mini, Roche) and lysed in 1x Laemmli Sample Buffer (Biorad) with 5% beta-mercaptoethanol (Sigma-Aldrich). Samples were heated at 99°C for 10 min before centrifugation. Equal quantities of solute were separated on Protean TGX Precast Gels (4–20% gradient) in Tris-SDS-glycine buffer, transferred to nitrocellulose membrane by iblot (Invitrogen), and blocked for 1h in tris-buffered saline (TBS) with 5% skim milk powder. Blocked membranes were probed with antibodies recognising tetra-acetylated H4 (H4ac4, Sigma-Aldrich 06–866), H4K8ac (CST #2594), H3K9ac (CST #9649) or H3 (CST #4499), at 1:1000 dilution, and PfBiP ([Shonhai et al., 2007]) (at 1:5000 dilution) in 3% milk powder TBS with 0.1% Tween 20 at 4°C overnight and with 800CW goat α-rabbit IgG (Licor) at 1:10,000 dilution. Membranes were visualised using a Licor Odyssey CLX imaging system and quantified using ImageJ.
Structure (SMILES),EC50 [1] [nM],EC50 [2] [nM],EC50 [3] [nM],EC50 [4] [nM],"acetylation of H4K8ac, H3K9ac and tetra-acetylated H4 (H4Ac4) histone markers relative to DMSO [5]"
CCN(CC)Cc1cc(Nc2ccnc3cc(Cl)ccc23)ccc1O [Amodiaquine],19 ± 6,20 ± 8.6,7.4 ± 1.8,21 ± 2.5,–
C[C@H]1[C@@H](O)O[C@@H]2O[C@@]3(C)CC[C@H]4[C@H](C)CC[C@@H]1[C@@]24OO3 [Dihydroartemisinin],4.6 ± 3,3.7 ± 3,2.6 ± 1.6,5.6 ± 3.5,–
OC(c1cc(C(F)(F)F)nc2c(C(F)(F)F)cccc12)C1CCCCN1 (stereo not shown) [Mefloquine],15 ± 5.7,20 ± 11,18 ± 4.6,31 ± 17,–
CC(/C=C/C(=O)NO)=C\[C@@H](C)C(=O)c1ccc(N(C)C)cc1 [trichostatin A],–,–,–,–,significant increase

# From PMC8878317, “Chemogenomics identifies acetyl-coenzyme A synthetase as a target for malaria treatment and prevention” (Cell Chemical Biology, 2022)
